The target of one data set is T1, albumin (Bos taurus, UniProt P02769).
T1 construct: Serum proteins have a retention span of ∼2–4 min as part of the high-molecular weight fraction with albumin at ∼4 min; tissue Sigma-Aldrich; host or cells: fetal calf serum (whole serum, buffered with 150 mM phosphate buffer pH 7.4)
Description: Albumin binding in fetal calf serum, SEC-ICP-MS. Type of data set: in vitro ADME. The settings on record: 50 μM in FCS. The protocol:
FCS was purchased from Sigma-Aldrich and buffered with 150 mM PB pH 7.4 to guarantee a stable pH. The platinum(IV) complexes were dissolved in 150 mM PB (pH 7.4) at a concentration of 5 mM and diluted 1 : 100 in the buffered serum to obtain a final concentration of 50 μM. The samples were then incubated in an autosampler at 37 °C and analyzed for 24 h. Between each sample, a pure water blank was measured. For SEC-ICP-MS measurements an Agilent 1260 Infinity system coupled to an Agilent 7800 ICP-MS equipped with a dynamic reaction cell was used. Oxygen (purity 5.5, Messer Austria GmbH, Gumpoldskirchen, Austria) was used as a reaction gas.

Data set [1] in a line: Platinum distribution study in vivo by ICP-MS. Also on record: species or system CT-26 tumor-bearing BALB/c mice. The settings on record: i.v., 24 h after second dose. The protocol:
(§1) Tumor size was determined daily via manual caliper measurement. […] Animals were euthanized via cervical dislocation.
The generation and treatment of tumor-bearing mice are outlined in the section “In vivo syngraft experiments” described above. Mouse tissues were processed as described previously.[13] Briefly, serum was isolated from peripheral blood by centrifugation (900g, 10 min, 4 °C, twice). Tissues were digested in 20% nitric acid and hydrogen peroxide using an open-vessel graphite digestion system. The platinum concentration was determined by ICP-MS analysis; for details see “Intracellular platinum accumulation in vitro by ICP-MS”.

Data set [2] relates to immune cell populations in tumor and spleen. Description: Immune activation and infiltration by flow cytometry. It counts as in vivo, CT-26-bearing BALB/c mice. The settings on record: 24 h after second dose. How it is done:
as §1
The generation and treatment of tumor-bearing mice are outlined in the section “In vivo syngraft experiments” above. Samples were kept on ice during the whole procedure. Tissues were prepared as described previously.[55] In brief, tumor and spleen tissues were collected and mechanically dissociated in DPBS buffer containing Ca^2+/Mg^2+ and FCS (5%). Tumor samples were digested using collagenase VIII (1 mg mL^−1) in a DPBS buffer (without Ca^2+/Mg^2+) supplemented with DNAse I (1 mg mL^−1) for 15 min at 37 °C under constant shaking. Samples were filtered using 70 μm cell strainers in a DPBS buffer (without Ca^2+/Mg^2+) containing FCS (5%), EDTA (5 mM) and DNase I (20 μg mL^−1). Subsequent washing steps were performed in DPBS buffer (without Ca^2+/Mg^2+) containing FCS (5%), EDTA (5 mM) and DNase I (20 μg mL^−1), unless indicated otherwise. Red blood cells were removed by short incubation with ACK buffer. For blocking, samples were incubated with the Ultra-LEAF purified anti-mouse CD16/CD32 antibody (clone: 93; #101330; RRID:AB_2783037; dilution: 1 : 1000) (Biolegend, San Diego, CA, USA) in the BD Horizon Brilliant Stain Buffer (#563794; BD Biosciences) for 10 min. Next, the samples were incubated with an antibody mixture in the BD Horizon Brilliant Stain Buffer for 30 min. Fluorescent dye-labeled antibodies targeting murine CD3 (17A2; #100203; RRID:AB_312661; 1 : 50), CD8a (53-6.7; #100738; RRID:AB_11204079; 1 : 160), CD19 (6D5; #115528; RRID:AB_493735; 1 : 400), CD49b (DX5; #108924; RRID:AB_2565271; 1 : 229), CD11b (M1/70; #101228; RRID:AB_893232; 1 : 80), and CD69 (H1.2F3; # 104512; RRID:AB_493564; 1 : 40) were purchased from BioLegend. The antibody targeting murine CD4 (RM4-5; # 85-0042-U100; 1 : 80) and the viability dye Ghost Dye Red 780 (#13-0865-T100; 1 : 1000) were purchased from Tonbobio (San Diego, CA, USA). The antibody targeting CD45 (30-F11; #363-0451-82; RRID:AB_2925264; 1 : 80) was purchased from Life Tech (Invitrogen). For intracellular staining of granzyme B (GzmB) (QA16A02; #372208; RRID:AB_2687032; 1 : 20) and FoxP3 (MF-14; #320014; RRID:AB_439750; 1 : 100) the True-Nuclear Transcription Factor Buffer Set (Biolegend; #424401) was used according to the manufacturer's recommendations. In brief, samples were incubated with Perm Fix Solution for 60 min at RT. Next, the samples were stained with antibodies targeting GzmB and FoxP3 (diluted in Perm buffer) for 30 min at RT. […] Next day, the samples were analyzed using a Cytek Aurora 5L (Cytek Biosciences, CA, USA) spectral flow cytometer. Data were analyzed using SpectroFlo (v3.2.1) (Cytek Biosciences) and FlowJo (v10.8.1) (FlowJo LLC, Ashland, OR, USA) software.

Data set [3] can be described thus: Cytokine and chemokine levels in plasma of treated animals, Luminex. It counts as in vivo, CT-26-bearing BALB/c mice. To be noted: 24 h after second dose. The protocol:
Next, the ProcartaPlex (96-well) multiplex assay panel was performed according to the manufacturer's recommendations. In brief, the capture bead mix was incubated with test samples (undiluted SN or mouse plasma) or standard mix overnight. The SN of three independent experiments or the plasma of four animals per treatment group was loaded onto the multiplex assay plate. Next, biotinylated detection antibody mix and Streptavidin-PE were added to the plate. Following the recommended washing steps, the samples were incubated in a reading buffer and were measured using a Luminex xMAP platform (Bio-Plex MAGPIX Multiplex Reader; Bio-Rad Laboratories) and analyzed using xPONENT software.
as §1

Data set [4] in a line: Hematological analysis 24 h after the second dose. The settings on record: two i.v. doses equimolar to 9 mg kg^−1 oxaliplatin, 24 h after second dose. How it is done: (§2) Mice were kept in groups of four per cage with sterilized paper-based environmental enrichment and food and water ad libitum, under pathogen-free conditions and a controlled environment with a 12 h light–dark cycle. Syngeneic models of colorectal carcinoma were generated via subcutaneous injection of CT-26 cells (0.5 × 10^6 cells in 50 μL of serum-free RPMI-1640 medium) into the right flank of 8–12 weeks old BALB/c mice. […] All animals were euthanized 24 h after the second dose. […] To determine the anticancer efficacy of the investigated compounds, treatment started 4 d after tumor implantation, when all tumors were measurable (>25 mm^3) using a twice-weekly treatment scheme for two weeks. Tumor size was determined daily via manual caliper measurement. The tumor volume was calculated as tumor volume = (length × diameter × diameter)/2. The overall condition, shape, and activity of the animals were assessed daily. Peripheral blood was collected from the submandibular vein in K3E K3EDTA tubes (Greiner Bio-One; Kremsmünster, AUT) on ice and was analyzed for hematological parameters (red blood cells (RBCs), hemoglobin (HGB), hematocrit (HCT), red cell distribution width (RDW), mean corpuscular volume (MCV), white blood cells (WBCs), lymphocytes (LYM), monocytes (MO), granulocytes (GRA), and platelets (PLT) using a Vet ABC hematology analyzer (scil Animal Care GmbH, Viernheim, Germany). EDTA-blood was centrifuged (900g, 10 min) twice and the supernatant (EDTA-plasma) was stored at −20 °C for subsequent cytokine/chemokine analysis using a Luminex detection platform. All animal experiments were performed with humane endpoints based on Federation of European Laboratory Animal Science Associations guidelines and according to the regulations of the Ethics Committee for the Care and Use of Laboratory Animals at the Medical University Vienna (proposal number BMBWF 2023–0.122.324). Animals were euthanized upon reaching a tumor volume of >1500 mm^3, a loss in body weight (>20%), tumor ulceration or other indications of deteriorated health. Animals were euthanized via cervical dislocation.

The nature of data set [5]: Hematological analysis after long-term treatment. The settings on record: 72 h after the fourth dose. How it is done:
as §2

For the next data set, the system named is CT-26 tumors. Description: Anticancer efficacy in vivo, syngeneic colorectal carcinoma. Also on record: species or system BALB/c mice. To be noted: i.v. twice a week for two weeks, equimolar to 9 mg kg^−1 oxaliplatin. How it is done: as §1
Where [6] appears, read: two doses, vs Ox-MSA-PEG-Ca or oxaliplatin.

SMILES strings stand for the structures. “Also recorded” adds a separate entry of the source.

T1 sequence (P02769 25-607): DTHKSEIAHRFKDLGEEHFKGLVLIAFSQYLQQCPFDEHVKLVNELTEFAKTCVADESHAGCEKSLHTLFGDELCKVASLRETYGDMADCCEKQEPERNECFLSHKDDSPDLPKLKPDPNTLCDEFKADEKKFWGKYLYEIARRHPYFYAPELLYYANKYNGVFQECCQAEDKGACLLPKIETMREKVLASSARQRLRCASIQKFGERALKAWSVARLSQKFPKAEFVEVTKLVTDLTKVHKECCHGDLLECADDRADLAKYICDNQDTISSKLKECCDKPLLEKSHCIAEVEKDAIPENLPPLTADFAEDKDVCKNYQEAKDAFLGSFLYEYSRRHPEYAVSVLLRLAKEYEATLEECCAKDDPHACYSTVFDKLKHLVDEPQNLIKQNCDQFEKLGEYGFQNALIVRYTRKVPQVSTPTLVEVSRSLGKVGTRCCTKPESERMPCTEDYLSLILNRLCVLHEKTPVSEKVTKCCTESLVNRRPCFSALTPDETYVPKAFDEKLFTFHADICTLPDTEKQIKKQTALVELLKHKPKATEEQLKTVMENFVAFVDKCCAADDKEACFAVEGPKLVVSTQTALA

Turning to `COc1cc2cc(C(=O)CCC(=O)[O][Pt-2]34([O]C(=O)NCCOCCOCCOCCOCCN5C(=O)C=CC5=O)([NH2+][C@@H]5CCCC[C@H]5[NH2+]3)[O]C(=O)C(=O)[O]4)sc2cc1OC` [Ox-MSA-Mal, (OC-6-34)-[(1R,2R)-1,2-cyclohexanediamino]-oxalato-[4-(5,6-dimethoxybenzo[b]thiophen-2-yl)-4-oxobutylcarboxylato]-[(14-(2,5-dioxo-2,5-dihydro-1H-pyrrol-1-yl)-3,6,9,12-tetraoxatetradecyl)carbamato]platinum(IV)], at albumin (150 mM PB pH 7.4, 37 °C, 0 h time point), the “platinum bound to albumin” value was “approximately 99%”. On albumin (37 °C, no release of platinum from the protein), the “stability of albumin drug conjugate” value is recorded as “stable over 24 h”. The “liver platinum level relative to tumor” value in data set [1] (two doses equimolar to 9 mg kg^−1 oxaliplatin) was determined as 1.4 fold. In data set [1] (setting [6]), the “platinum accumulation in peripheral blood cells” value is reported as “clearly lowered accumulation”; the “platinum levels in serum and tumor” value is given as “distinctly elevated platinum levels”. The “FoxP3+ CD4+ T cell compartment in the spleen” value in data set [2] is on record as “selectively elevated”. The “plasma chemokines CXCL9 and CXCL11” value in data set [3] is given as “most strongly activated”. Moreover, the anemia result in data set [4] is reported as “not”. Moreover, in data set [5], the RBC toxicity result is given as “strongly reduced” and the “platelet counts (PLT) / thrombocytopenia” value is “not evident”. Moreover, in data set [5] (i.v. twice a week for two weeks), the “absolute counts of white blood cells and subpopulations” value is on record as “induced an increase”. The tumor growth result in the data set on CT-26 tumors is listed as “distinctly stronger anticancer efficacy; also recorded: significantly inhibited colorectal tumor growth”.

For the origin of these results see publication PMC11969438 (Inorganic Chemistry Frontiers, 2025).
